Values of other authors as cited in patent US6576223B2, “Insect repellent” (Karl Engelhard Fabrik Pharm Praparate GmbH & Co. KG., priority 1997, dated 2003).

Legend:
[1] = concentrations of DEET exceeding 30%; monograph Diethyltoluamid, Bundesanzeiger No. 137

| Compound | side effects [1] | period of effectiveness (insects; DEET as alcohol solution applied to the skin, known agents) | repellent effect of the adjuvant itself (insects; adjuvant alone, EP 0 090 288) |
| --- | --- | --- | --- |
| CCN(CC)C(=O)c1cccc(C)c1 [DEET, N,N-diethyl-m-toluamide] | blistering, ulceration, and necroses can occur | about 5 hours |  |
| polyethylene glycol 400 [PEG-400] |  |  | no repellent effect |
